# Assays:
# Assay in all cases: cells
# [1] = test system: CAL-39; assay type: functional, cell-based, Homo sapiens; details: Homo sapiens, CAL-39;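 note: cell viability assay measuring growth inhibition of CAL-39 cells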
# Description: SANGER: Inhibition of human CAL-39 cell growth in a cell viability assay.
# [2] = test system: SNU-387; assay type: functional, cell-based, Homo sapiens; details: Homo sapiens, SNU-387
# Description: SANGER: Inhibition of human SNU-387 cell growth in a cell viability assay.
# [3] = test system: HCC2157; assay type: functional, cell-based; details: Homo sapiens;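 note: growth inhibition of the cancer cell line, read out as cell viability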
# Description: SANGER: Inhibition of human HCC2157 cell growth in a cell viability assay.
# [4] = test system: TGBC24TKB; assay type: functional, cell-based, Homo sapiens; details: Homo sapiens, TGBC24TKB;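 note: growth inhibition of human TGBC24TKB cells, read out with a cell viability assay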
# Description: SANGER: Inhibition of human TGBC24TKB cell growth in a cell viability assay.
# [5] = test system: HCC1806; assay type: functional, cell-based, Homo sapiens; details: Homo sapiens, HCC1806;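 note: growth inhibition of the cancer cell line, determined with a cell viability assay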
# Description: SANGER: Inhibition of human HCC1806 cell growth in a cell viability assay.
# [6] = test system: SW684; assay type: functional, cell-based, Homo sapiens; details: Homo sapiens, SW684;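 note: growth inhibition of human SW684 cells, measured by a cell viability assay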
# Description: SANGER: Inhibition of human SW684 cell growth in a cell viability assay.
# [7] = test system: DMS-114; assay type: functional, cell-based, Homo sapiens; details: Homo sapiens, DMS-114
# [8] = test system: SW780; assay type: functional, cell-based, Homo sapiens; details: Homo sapiens, SW780;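 note: growth inhibition of the cells, read out with a cell viability assay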
# Description: SANGER: Inhibition of human SW780 cell growth in a cell viability assay.
# [9] = test system: 697; assay type: functional, cell-based; details: Homo sapiens
# Description: SANGER: Inhibition of human 697 cell growth in a cell viability assay.
# [10] = test system: KY821; assay type: functional, cell-based; details: Homo sapiens;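 note: growth inhibition of human KY821 cells, read out by a cell viability assay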
# Description: SANGER: Inhibition of human KY821 cell growth in a cell viability assay.
# [11] = test system: NCI-H1993; assay type: functional, cell-based, Homo sapiens; details: Homo sapiens, NCI-H1993;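 note: growth inhibition of the cancer cell line, assessed with a cell viability assay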
# Description: SANGER: Inhibition of human NCI-H1993 cell growth in a cell viability assay.
# [12] = test system: LU-134-A; assay type: functional, cell-based; details: Homo sapiens
# Description: SANGER: Inhibition of human LU-134-A cell growth in a cell viability assay.
# [13] = test system: SJSA-1; assay type: functional, cell-based, Homo sapiens; details: Homo sapiens, SJSA-1;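 note: growth inhibition of human SJSA-1 cells, read out through a cell viability measurement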
# Description: SANGER: Inhibition of human SJSA-1 cell growth in a cell viability assay.
# [14] = test system: EOL1; assay type: functional, cell-based; details: Homo sapiens;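 note: growth inhibition of EoL-1 cells, read out by a cell viability assay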
# Description: SANGER: Inhibition of human EoL-1-cell cell growth in a cell viability assay.
# [15] = test system: KYSE-150 cell line; assay type: functional, cell-based, Homo sapiens; details: Homo sapiens, KYSE-150;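 note: growth inhibition of human KYSE-150 cells, read out with a cell viability assay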
# Description: SANGER: Inhibition of human KYSE-150 cell growth in a cell viability assay.
# [16] = test system: KURAMOCHI; assay type: functional, cell-based; details: Homo sapiens;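 note: growth inhibition of KURAMOCHI cells, read out with a cell viability assay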
# Description: SANGER: Inhibition of human KURAMOCHI cell growth in a cell viability assay.
# [17] = test system: COR-L105; assay type: functional, cell-based, Homo sapiens; details: Homo sapiens, COR-L105;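 note: cell growth inhibition determined with a viability assay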
# Description: SANGER: Inhibition of human COR-L105 cell growth in a cell viability assay.
# [18] = test system: NCI-H2347; assay type: functional, cell-based, Homo sapiens; details: Homo sapiens, NCI-H2347;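 note: growth inhibition of the cell line, read out with a cell viability assay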
# Description: SANGER: Inhibition of human NCI-H2347 cell growth in a cell viability assay.
# [19] = test system: ES8; assay type: functional, cell-based, Homo sapiens; details: Homo sapiens, ES8;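 note: growth inhibition of human ES8 cells, read out with a cell viability assay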
# Description: SANGER: Inhibition of human ES8 cell growth in a cell viability assay.
# [20] = test system: Calu-3; assay type: functional, cell-based, Homo sapiens; details: Homo sapiens, Calu-3;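 note: growth inhibition of human Calu-3 cells, determined with a cell viability assay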
# Description: SANGER: Inhibition of human Calu-3 cell growth in a cell viability assay.
# [21] = test system: A-375; assay type: functional, cell-based, Homo sapiens; details: Homo sapiens, A-375;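 note: growth inhibition of A375 cells, read out with a cell viability assay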
# Description: SANGER: Inhibition of human A375 cell growth in a cell viability assay.
# [22] = test system: NCI-H1299; assay type: functional, cell-based, Homo sapiens; details: Homo sapiens, NCI-H1299;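 note: growth inhibition of human NCI-H1299 cells, read out by a cell viability assay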
# Description: SANGER: Inhibition of human NCI-H1299 cell growth in a cell viability assay.
# [23] = test system: C3A; assay type: functional, cell-based, Homo sapiens; details: Homo sapiens, C3A;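 note: growth inhibition of C3A human cells, quantified with a cell viability readout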
# Description: SANGER: Inhibition of human C3A cell growth in a cell viability assay.
# [24] = test system: DoTc2-4510; assay type: functional, cell-based, Homo sapiens; details: Homo sapiens, DoTc2-4510
# [25] = test system: GT3TKB; assay type: functional, cell-based, Homo sapiens; details: Homo sapiens, GT3TKB;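 note: growth inhibition of the cell line, read out with a cell viability assay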
# Description: SANGER: Inhibition of human GT3TKB cell growth in a cell viability assay.
# [26] = test system: MCF7; assay type: functional, cell-based, Homo sapiens; details: Homo sapiens, MCF7;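 note: growth inhibition of human MCF7 cells, read out with a cell viability assay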
# Description: SANGER: Inhibition of human MCF7 cell growth in a cell viability assay.
# [27] = test system: CAL-33; assay type: functional, cell-based, Homo sapiens; details: Homo sapiens, CAL-33;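 note: growth inhibition of CAL-33 cells, read out with a cell viability assay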
# Description: SANGER: Inhibition of human CAL-33 cell growth in a cell viability assay.
# [28] = test system: TE-5; assay type: functional, cell-based, Homo sapiens; details: Homo sapiens, TE-5;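 note: inhibition of cell growth, read out by a cell viability assay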
# Description: SANGER: Inhibition of human TE-5 cell growth in a cell viability assay.
# [29] = test system: HuTu80; assay type: functional, cell-based, Homo sapiens, HUTU-80; details: Homo sapiens, HuTu80;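 note: growth inhibition of HuTu80 human cells, determined with a cell viability readout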
# Description: SANGER: Inhibition of human HUTU-80 cell growth in a cell viability assay.
# [30] = test system: SK-N-DZ; assay type: functional, cell-based, Homo sapiens; details: Homo sapiens, SK-N-DZ;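 note: growth inhibition of the cancer cell line, read out through a viability assay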
# Description: SANGER: Inhibition of human SK-N-DZ cell growth in a cell viability assay.
# [31] = test system: COLO-800; assay type: functional, cell-based, Homo sapiens; details: Homo sapiens, COLO-800;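 note: growth inhibition of COLO-800 cells, read out with a cell viability assay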
# Description: SANGER: Inhibition of human COLO-800 cell growth in a cell viability assay.
# [32] = test system: EW-13; assay type: functional, cell-based; details: Homo sapiens;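 note: growth inhibition of EW-13 cells, read out with a cell viability assay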
# Description: SANGER: Inhibition of human EW-13 cell growth in a cell viability assay.
# [33] = test system: LAMA-84; assay type: functional, cell-based; details: Homo sapiens;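 note: growth inhibition of LAMA-84 cells, read out with a cell viability assay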
# Description: SANGER: Inhibition of human LAMA-84 cell growth in a cell viability assay.
# [34] = test system: HCC1954; assay type: functional, cell-based, Homo sapiens; details: Homo sapiens, HCC1954;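 note: growth inhibition of human HCC1954 cells, read out with a cell viability assay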
# Description: SANGER: Inhibition of human HCC1954 cell growth in a cell viability assay.
# [35] = test system: SNU-449; assay type: functional, cell-based, Homo sapiens; details: Homo sapiens, SNU-449
# Description: SANGER: Inhibition of human SNU-449 cell growth in a cell viability assay.
# [36] = test system: A2058; assay type: functional, cell-based; details: Homo sapiens;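 note: reduction of A2058 cell growth, read out with a viability assay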
# Description: SANGER: Inhibition of human A2058 cell growth in a cell viability assay.
# [37] = test system: AM-38; assay type: functional, cell-based, Homo sapiens; details: Homo sapiens, AM-38;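 note: growth inhibition of AM-38 cells of human origin, read out by a cell viability assay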
# Description: SANGER: Inhibition of human AM-38 cell growth in a cell viability assay.
# [38] = test system: MKN-28; assay type: functional, cell-based, Homo sapiens; details: Homo sapiens, MKN-28;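 note: cell viability assay read-out, IC50 reflects suppression of growth of human MKN-28 cells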
# Description: SANGER: Inhibition of human MKN28 cell growth in a cell viability assay.
# [39] = test system: BXPC-3; assay type: functional, cell-based, Homo sapiens; details: Homo sapiens, BXPC-3;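 note: growth inhibition of human BxPC-3 cells, read out by a cell viability assay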
# Description: SANGER: Inhibition of human BxPC-3 cell growth in a cell viability assay.
# [40] = test system: AN3-CA; assay type: functional, cell-based; details: Homo sapiens;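 note: growth inhibition of human AN3-CA cells measured by a cell viability assay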
# Description: SANGER: Inhibition of human AN3-CA cell growth in a cell viability assay.
# [41] = test system: NCI-H1792; assay type: functional, cell-based, Homo sapiens; details: Homo sapiens, NCI-H1792;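 note: growth inhibition of human NCI-H1792 cells, read out as cell viability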
# Description: SANGER: Inhibition of human NCI-H1792 cell growth in a cell viability assay.
# [42] = test system: A673; assay type: functional, cell-based, Homo sapiens; details: Homo sapiens, A673;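 note: growth inhibition of human A673 cells, read out through a cell viability assay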
# Description: SANGER: Inhibition of human A673 cell growth in a cell viability assay.
# [43] = test system: HT-1376; assay type: functional, cell-based, Homo sapiens; details: Homo sapiens, HT-1376
# Description: SANGER: Inhibition of human HT-1376 cell growth in a cell viability assay.
# [44] = test system: UMC-11; assay type: functional, cell-based, Homo sapiens; details: Homo sapiens, UMC-11;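 note: growth inhibition of UMC-11 cells, read out with a cell viability assay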
# Description: SANGER: Inhibition of human UMC-11 cell growth in a cell viability assay.
# [45] = test system: EW-3; assay type: functional, cell-based; details: Homo sapiens;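 note: cell viability assay read-out, IC50 reflects inhibition of growth of the EW-3 cells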
# Description: SANGER: Inhibition of human EW-3 cell growth in a cell viability assay.
# [46] = test system: CAPAN-1; assay type: functional, cell-based, Homo sapiens; details: Homo sapiens, CAPAN-1;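 note: growth suppression of CAPAN-1 cells, read out by a cell viability assay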
# Description: SANGER: Inhibition of human CAPAN-1 cell growth in a cell viability assay.
# [47] = test system: NCI-H2122; assay type: functional, cell-based, Homo sapiens; details: Homo sapiens, NCI-H2122;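 note: growth inhibition of the cells, read out with a cell viability assay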
# Description: SANGER: Inhibition of human NCI-H2122 cell growth in a cell viability assay.
# [48] = test system: SW1573; assay type: functional, cell-based, Homo sapiens; details: Homo sapiens, SW1573;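 note: growth inhibition of SW1573 cells, read out with a cell viability assay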
# Description: SANGER: Inhibition of human SW1573 cell growth in a cell viability assay.
# [49] = test system: NCI-H446; assay type: functional, cell-based; details: Homo sapiens;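 note: growth inhibition of NCI-H446 cells determined by a cell viability assay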
# Description: SANGER: Inhibition of human NCI-H446 cell growth in a cell viability assay.
# [50] = test system: OVCAR-8; assay type: functional, cell-based, Homo sapiens; details: Homo sapiens, OVCAR-8;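 note: growth inhibition of human OVCAR-8 cells, read out by a cell viability assay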
# Description: SANGER: Inhibition of human OVCAR-8 cell growth in a cell viability assay.
compound,measurement,setting,value
CCOc1nc(NC(=O)Cc2cc(OC)ccc2OC)cc(N)c1C#N,IC50,[1],> 10 µM
same,IC50,[2],> 10 µM
same,IC50,[3],> 10 µM
same,IC50,[4],> 10 µM
same,IC50,[5],> 10 µM
same,IC50,[6],> 10 µM
same,IC50,[7],> 10 µM
same,IC50,[8],> 10 µM
same,IC50,[9],> 10 µM
same,IC50,[10],> 10 µM
same,IC50,[11],> 10 µM
same,IC50,[12],> 10 µM
same,IC50,[13],> 10 µM
same,IC50,[14],> 10 µM
same,IC50,[15],> 10 µM
same,IC50,[16],> 10 µM
same,IC50,[17],> 10 µM
same,IC50,[18],> 10 µM
same,IC50,[19],> 10 µM
same,IC50,[20],> 10 µM
same,IC50,[21],> 10 µM
same,IC50,[22],> 10 µM
same,IC50,[23],> 10 µM
same,IC50,[24],> 10 µM
same,IC50,[25],> 10 µM
same,IC50,[26],> 10 µM
same,IC50,[27],> 10 µM
same,IC50,[28],> 10 µM
same,IC50,[29],> 10 µM
same,IC50,[30],> 10 µM
same,IC50,[31],> 10 µM
same,IC50,[32],> 10 µM
same,IC50,[33],> 10 µM
same,IC50,[34],> 10 µM
same,IC50,[35],> 10 µM
same,IC50,[36],> 10 µM
same,IC50,[37],> 10 µM
same,IC50,[38],> 10 µM
same,IC50,[39],> 10 µM
same,IC50,[40],> 10 µM
same,IC50,[41],> 10 µM
same,IC50,[42],> 10 µM
same,IC50,[43],> 10 µM
same,IC50,[44],> 10 µM
same,IC50,[45],> 10 µM
same,IC50,[46],> 10 µM
same,IC50,[47],> 10 µM
same,IC50,[48],> 10 µM
same,IC50,[49],> 10 µM
same,IC50,[50],> 10 µM
C=CCNC1=C2C[C@@H](C)C[C@H](OC)[C@H](O)[C@@H](C)/C=C(\C)[C@H](OC(N)=O)[C@@H](OC)/C=C\C=C(/C)C(=O)NC(=CC1=O)C2=O [TANESPIMYCIN],IC50,[1],0.0777 µM
same,IC50,[2],> 1 µM
same,IC50,[3],0.388 µM
same,IC50,[4],> 1 µM
same,IC50,[5],0.0713 µM
same,IC50,[6],0.0659 µM
same,IC50,[7],> 1 µM
same,IC50,[8],0.042 µM
same,IC50,[9],> 1 µM
same,IC50,[10],0.299 µM
same,IC50,[11],> 1 µM
same,IC50,[12],0.261 µM
same,IC50,[13],0.318 µM
same,IC50,[14],0.222 µM
same,IC50,[15],0.0524 µM
same,IC50,[16],0.952 µM
same,IC50,[17],> 1 µM
same,IC50,[18],0.148 µM
same,IC50,[19],0.308 µM
same,IC50,[20],> 1 µM
same,IC50,[21],0.128 µM
same,IC50,[22],0.163 µM
same,IC50,[23],0.454 µM
same,IC50,[24],0.208 µM
same,IC50,[25],0.0594 µM
same,IC50,[26],0.0968 µM
same,IC50,[27],> 1 µM
same,IC50,[28],> 1 µM
same,IC50,[29],> 1 µM
same,IC50,[30],> 1 µM
same,IC50,[31],0.258 µM
same,IC50,[32],> 1 µM
same,IC50,[33],> 1 µM
same,IC50,[34],> 1 µM
same,IC50,[35],> 1 µM
same,IC50,[36],0.0723 µM
same,IC50,[37],0.208 µM
same,IC50,[38],0.666 µM
same,IC50,[39],0.16 µM
same,IC50,[40],0.05 µM
same,IC50,[41],0.0962 µM
same,IC50,[42],> 1 µM
same,IC50,[43],0.169 µM
same,IC50,[44],0.552 µM
same,IC50,[45],0.127 µM
same,IC50,[46],0.248 µM
same,IC50,[47],0.0974 µM
same,IC50,[48],0.148 µM
same,IC50,[49],> 1 µM
same,IC50,[50],0.0862 µM
CC(=O)O[C@@H]1[C@@H](OC(C)=O)[C@@H](O)[C@H](Oc2c(-c3ccc(O)cc3)oc3cc(O)cc(O)c3c2=O)O[C@H]1C,IC50,[1],> 10 µM
same,IC50,[2],> 10 µM
same,IC50,[3],5.65 µM
same,IC50,[4],> 10 µM
same,IC50,[5],> 10 µM
same,IC50,[6],> 10 µM
same,IC50,[7],> 10 µM
same,IC50,[8],> 10 µM
same,IC50,[9],> 10 µM
same,IC50,[10],> 10 µM
same,IC50,[11],> 10 µM
same,IC50,[12],> 10 µM
same,IC50,[13],> 10 µM
same,IC50,[14],> 10 µM
same,IC50,[15],> 10 µM
same,IC50,[16],> 10 µM
same,IC50,[17],> 10 µM
same,IC50,[18],> 10 µM
same,IC50,[19],> 10 µM
same,IC50,[20],> 10 µM
same,IC50,[21],> 10 µM
same,IC50,[22],> 10 µM
same,IC50,[23],> 10 µM
same,IC50,[24],> 10 µM
same,IC50,[25],> 10 µM
same,IC50,[26],> 10 µM
same,IC50,[27],> 10 µM
same,IC50,[28],> 10 µM
same,IC50,[29],> 10 µM
same,IC50,[30],> 10 µM
same,IC50,[31],> 10 µM
same,IC50,[32],> 10 µM
same,IC50,[33],> 10 µM
same,IC50,[34],> 10 µM
same,IC50,[35],> 10 µM
same,IC50,[36],> 10 µM
same,IC50,[37],> 10 µM
same,IC50,[38],> 10 µM
same,IC50,[39],> 10 µM
same,IC50,[40],> 10 µM
same,IC50,[41],> 10 µM
same,IC50,[42],> 10 µM
same,IC50,[43],> 10 µM
same,IC50,[44],> 10 µM
same,IC50,[45],> 10 µM
same,IC50,[46],> 10 µM
same,IC50,[47],> 10 µM
same,IC50,[48],> 10 µM
same,IC50,[49],> 10 µM
same,IC50,[50],> 10 µM
